Calls of active or inactive are those of the source. For most assays here, no stated cut-off is given here; in the data, actives have a measured IC50 and inactives only a lower limit.
What was measured:
[1] = biological target: T1, Sentrin-specific protease 7 (Homo sapiens, UniProt Q9BQF6); assay type: functional;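 further: Luminescence-based dose-response confirmation of ultra-high-throughput screening hits, measuring inhibition of SENP7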
T1 sequence (Q9BQF6 whole entry): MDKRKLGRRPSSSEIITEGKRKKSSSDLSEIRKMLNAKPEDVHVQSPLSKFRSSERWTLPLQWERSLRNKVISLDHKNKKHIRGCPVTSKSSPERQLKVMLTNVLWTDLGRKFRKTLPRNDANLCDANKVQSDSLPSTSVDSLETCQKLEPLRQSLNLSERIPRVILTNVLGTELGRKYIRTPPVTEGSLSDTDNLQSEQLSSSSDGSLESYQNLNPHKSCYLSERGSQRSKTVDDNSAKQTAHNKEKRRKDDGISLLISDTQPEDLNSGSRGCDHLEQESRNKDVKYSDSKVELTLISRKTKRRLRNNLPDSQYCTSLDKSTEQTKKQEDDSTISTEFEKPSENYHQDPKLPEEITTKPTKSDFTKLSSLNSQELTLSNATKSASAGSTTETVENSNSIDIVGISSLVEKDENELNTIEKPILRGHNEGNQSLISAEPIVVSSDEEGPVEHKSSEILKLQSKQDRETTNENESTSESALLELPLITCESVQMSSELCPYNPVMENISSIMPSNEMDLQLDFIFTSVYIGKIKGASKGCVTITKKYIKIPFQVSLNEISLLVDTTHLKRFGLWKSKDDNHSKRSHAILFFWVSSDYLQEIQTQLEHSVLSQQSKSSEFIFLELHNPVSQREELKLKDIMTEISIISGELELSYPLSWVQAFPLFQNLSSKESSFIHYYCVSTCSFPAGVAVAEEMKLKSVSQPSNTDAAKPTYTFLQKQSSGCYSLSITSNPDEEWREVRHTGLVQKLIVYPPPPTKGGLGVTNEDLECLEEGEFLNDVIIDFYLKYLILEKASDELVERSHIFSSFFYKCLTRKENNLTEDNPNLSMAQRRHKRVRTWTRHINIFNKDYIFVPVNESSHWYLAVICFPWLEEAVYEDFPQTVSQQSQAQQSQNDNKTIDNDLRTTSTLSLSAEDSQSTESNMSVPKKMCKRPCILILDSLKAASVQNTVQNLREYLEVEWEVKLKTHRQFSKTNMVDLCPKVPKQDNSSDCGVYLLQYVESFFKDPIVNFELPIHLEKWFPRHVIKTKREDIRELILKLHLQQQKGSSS

[2] = biological target: T2, Sentrin-specific protease 6 (Homo sapiens, UniProt Q9GZR1); assay type: functional;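 further: Luminescence-based dose-response confirmatory assay of SENP6 inhibition, following up an ultra-high-throughput screen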
T2 sequence (Q9GZR1 whole entry): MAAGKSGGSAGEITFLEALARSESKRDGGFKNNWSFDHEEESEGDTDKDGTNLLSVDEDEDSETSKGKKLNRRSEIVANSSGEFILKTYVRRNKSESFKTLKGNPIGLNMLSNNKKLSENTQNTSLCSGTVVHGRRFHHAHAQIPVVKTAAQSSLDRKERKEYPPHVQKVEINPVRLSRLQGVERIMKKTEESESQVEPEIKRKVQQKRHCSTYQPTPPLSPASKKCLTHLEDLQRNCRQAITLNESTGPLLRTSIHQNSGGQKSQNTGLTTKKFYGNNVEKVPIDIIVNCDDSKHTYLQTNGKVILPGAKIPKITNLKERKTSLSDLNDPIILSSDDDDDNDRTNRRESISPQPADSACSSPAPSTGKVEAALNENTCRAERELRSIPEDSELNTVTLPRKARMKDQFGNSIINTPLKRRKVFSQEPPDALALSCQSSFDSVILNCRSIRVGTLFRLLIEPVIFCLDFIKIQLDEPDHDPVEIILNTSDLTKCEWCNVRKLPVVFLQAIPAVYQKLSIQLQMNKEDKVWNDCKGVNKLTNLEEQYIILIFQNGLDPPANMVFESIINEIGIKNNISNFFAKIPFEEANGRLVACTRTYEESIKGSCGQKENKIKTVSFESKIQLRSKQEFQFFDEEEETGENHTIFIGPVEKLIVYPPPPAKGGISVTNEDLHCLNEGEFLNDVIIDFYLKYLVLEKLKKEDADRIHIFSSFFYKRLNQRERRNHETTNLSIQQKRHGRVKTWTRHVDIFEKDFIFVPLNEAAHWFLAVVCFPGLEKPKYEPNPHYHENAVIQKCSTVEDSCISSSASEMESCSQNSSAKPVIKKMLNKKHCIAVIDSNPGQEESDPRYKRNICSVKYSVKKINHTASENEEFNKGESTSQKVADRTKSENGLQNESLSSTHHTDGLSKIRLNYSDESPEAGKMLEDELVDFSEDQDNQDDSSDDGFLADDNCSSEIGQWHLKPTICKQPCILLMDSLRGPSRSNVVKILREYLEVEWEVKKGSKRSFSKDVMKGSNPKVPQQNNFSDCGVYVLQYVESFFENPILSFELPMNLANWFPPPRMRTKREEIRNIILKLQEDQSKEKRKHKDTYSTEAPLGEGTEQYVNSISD

[3] = biological target: T3, Sentrin-specific protease 8 (Homo sapiens, UniProt Q96LD8); assay type: functional;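 further: luminescence read-out of SENP8 inhibition, dose-response confirmation following an ultra-high-throughput screen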
T3 sequence (Q96LD8 whole entry): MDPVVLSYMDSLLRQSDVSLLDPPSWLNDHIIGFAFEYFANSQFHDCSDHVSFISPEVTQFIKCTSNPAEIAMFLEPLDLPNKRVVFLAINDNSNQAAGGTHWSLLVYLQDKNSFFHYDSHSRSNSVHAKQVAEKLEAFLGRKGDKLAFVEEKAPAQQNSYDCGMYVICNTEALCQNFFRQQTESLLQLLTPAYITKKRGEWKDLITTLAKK

[4] = biological target: T4, Oxysterols receptor LXR-beta (Homo sapiens, UniProt P55055); assay type: functional, cell-based;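 further: Cell-based luminescence dose-response assay of agonist activity at LXR, run as a confirmatory counterscreen to a daf-12 agonist screen; HEK293 cells with Gal4-LXR fusion and GAL4-driven luciferase reporter; agonist potency from rising luciferase signal of a Gal4-LXR reporter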
T4 sequence (P55055 whole entry): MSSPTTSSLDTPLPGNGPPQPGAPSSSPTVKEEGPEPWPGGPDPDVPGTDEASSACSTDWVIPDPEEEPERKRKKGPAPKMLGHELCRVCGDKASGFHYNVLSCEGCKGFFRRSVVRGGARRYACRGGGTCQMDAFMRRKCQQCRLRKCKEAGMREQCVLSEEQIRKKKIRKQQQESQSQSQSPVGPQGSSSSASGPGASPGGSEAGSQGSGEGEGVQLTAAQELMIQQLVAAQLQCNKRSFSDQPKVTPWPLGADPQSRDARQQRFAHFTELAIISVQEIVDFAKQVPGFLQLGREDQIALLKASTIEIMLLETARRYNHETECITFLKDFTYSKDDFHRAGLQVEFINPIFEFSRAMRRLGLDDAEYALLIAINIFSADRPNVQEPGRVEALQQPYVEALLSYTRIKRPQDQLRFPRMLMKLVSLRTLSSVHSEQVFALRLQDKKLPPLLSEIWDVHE

Caspase-3 = biological target: T5, Caspase-3 (Homo sapiens, UniProt P42574); assay type: functional;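 further: Dose-response selectivity test against caspase-3 for candidate inhibitors of sentrin-specific proteases (SENPs)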
T5 sequence (P42574 whole entry): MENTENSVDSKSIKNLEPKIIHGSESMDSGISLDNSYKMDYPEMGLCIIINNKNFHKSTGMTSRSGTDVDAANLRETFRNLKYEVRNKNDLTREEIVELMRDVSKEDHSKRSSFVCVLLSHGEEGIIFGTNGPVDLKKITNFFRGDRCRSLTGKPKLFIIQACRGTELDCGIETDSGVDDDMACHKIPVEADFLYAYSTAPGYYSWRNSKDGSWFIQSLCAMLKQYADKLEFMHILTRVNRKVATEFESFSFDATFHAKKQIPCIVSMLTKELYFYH

[5] = biological target: T6, Replicative DNA helicase DnaB (Mycobacterium tuberculosis, UniProt P9WMR3); test: DnaB intein splicing inhibitors, dose response, biochemical, cell-free fluorescence (AID 449749); assay type: functional
T6 sequence (P9WMR3 whole entry): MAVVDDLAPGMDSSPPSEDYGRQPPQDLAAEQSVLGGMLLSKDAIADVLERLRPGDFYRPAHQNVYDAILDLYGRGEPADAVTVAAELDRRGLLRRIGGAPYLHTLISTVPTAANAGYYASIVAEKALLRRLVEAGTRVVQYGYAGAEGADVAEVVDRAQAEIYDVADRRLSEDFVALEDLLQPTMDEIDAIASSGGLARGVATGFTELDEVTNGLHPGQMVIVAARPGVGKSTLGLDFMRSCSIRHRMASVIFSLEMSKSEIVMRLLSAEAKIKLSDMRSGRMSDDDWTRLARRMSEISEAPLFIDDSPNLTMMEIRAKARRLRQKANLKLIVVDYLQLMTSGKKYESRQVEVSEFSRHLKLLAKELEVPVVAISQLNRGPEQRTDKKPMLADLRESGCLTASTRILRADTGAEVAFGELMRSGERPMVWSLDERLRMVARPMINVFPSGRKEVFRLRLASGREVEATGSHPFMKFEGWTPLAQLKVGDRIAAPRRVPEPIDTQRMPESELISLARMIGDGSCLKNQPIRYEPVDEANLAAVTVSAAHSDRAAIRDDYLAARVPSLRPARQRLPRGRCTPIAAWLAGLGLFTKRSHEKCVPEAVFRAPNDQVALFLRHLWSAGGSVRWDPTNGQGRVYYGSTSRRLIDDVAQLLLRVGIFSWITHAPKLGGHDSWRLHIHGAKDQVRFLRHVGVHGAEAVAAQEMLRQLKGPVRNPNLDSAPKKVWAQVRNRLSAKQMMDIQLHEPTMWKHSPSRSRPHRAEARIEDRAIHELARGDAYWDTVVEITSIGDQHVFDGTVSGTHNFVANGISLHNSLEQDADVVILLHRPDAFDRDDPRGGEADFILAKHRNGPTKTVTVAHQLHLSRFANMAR

[6] = biological target: T7, Apoptotic protease-activating factor 1 (Homo sapiens, UniProt O14727); assay type: functional
T7 sequence (O14727 whole entry): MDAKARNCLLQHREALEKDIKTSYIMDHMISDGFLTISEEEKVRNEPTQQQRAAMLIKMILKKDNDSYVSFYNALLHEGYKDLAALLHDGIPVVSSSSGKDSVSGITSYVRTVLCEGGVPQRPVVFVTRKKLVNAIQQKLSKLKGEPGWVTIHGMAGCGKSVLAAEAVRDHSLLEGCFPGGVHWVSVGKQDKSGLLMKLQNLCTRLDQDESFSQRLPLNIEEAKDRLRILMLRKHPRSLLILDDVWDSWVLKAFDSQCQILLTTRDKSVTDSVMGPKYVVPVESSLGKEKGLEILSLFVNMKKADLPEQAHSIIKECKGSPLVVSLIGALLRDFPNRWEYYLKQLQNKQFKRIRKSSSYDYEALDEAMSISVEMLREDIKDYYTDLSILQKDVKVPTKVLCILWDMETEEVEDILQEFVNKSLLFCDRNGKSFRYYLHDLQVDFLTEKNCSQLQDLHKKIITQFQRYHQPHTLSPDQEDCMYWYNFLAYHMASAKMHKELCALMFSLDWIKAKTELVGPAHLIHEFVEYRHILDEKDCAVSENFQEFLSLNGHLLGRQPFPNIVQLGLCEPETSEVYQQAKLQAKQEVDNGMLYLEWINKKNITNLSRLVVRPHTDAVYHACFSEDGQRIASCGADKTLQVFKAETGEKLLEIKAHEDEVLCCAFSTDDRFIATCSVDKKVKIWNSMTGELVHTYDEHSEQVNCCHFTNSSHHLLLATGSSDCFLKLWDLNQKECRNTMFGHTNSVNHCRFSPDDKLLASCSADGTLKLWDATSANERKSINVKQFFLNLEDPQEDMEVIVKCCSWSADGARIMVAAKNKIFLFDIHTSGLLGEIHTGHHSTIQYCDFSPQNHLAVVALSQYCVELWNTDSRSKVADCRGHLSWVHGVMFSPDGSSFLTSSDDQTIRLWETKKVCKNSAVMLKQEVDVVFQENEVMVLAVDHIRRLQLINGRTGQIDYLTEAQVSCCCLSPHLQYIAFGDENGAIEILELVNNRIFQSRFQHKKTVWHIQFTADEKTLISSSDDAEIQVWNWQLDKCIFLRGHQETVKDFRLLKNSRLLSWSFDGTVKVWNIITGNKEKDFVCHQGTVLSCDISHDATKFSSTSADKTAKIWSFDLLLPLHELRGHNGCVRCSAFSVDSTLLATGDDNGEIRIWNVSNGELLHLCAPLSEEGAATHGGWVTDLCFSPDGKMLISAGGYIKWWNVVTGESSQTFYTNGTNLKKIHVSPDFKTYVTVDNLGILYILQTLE

Protein RecA = biological target: T8, Protein RecA (Mycobacterium tuberculosis, UniProt P9WHJ3); test: Fluorescence Cell-Free Homogeneous Dose Retest to Identify Inhibitors of RecA-Intein Splicing Activity. [Related pubchem assays (depositor defined):AID2097, AID2223, AID489010, AID492950]; assay type: functional
T8 sequence (P9WHJ3 whole entry): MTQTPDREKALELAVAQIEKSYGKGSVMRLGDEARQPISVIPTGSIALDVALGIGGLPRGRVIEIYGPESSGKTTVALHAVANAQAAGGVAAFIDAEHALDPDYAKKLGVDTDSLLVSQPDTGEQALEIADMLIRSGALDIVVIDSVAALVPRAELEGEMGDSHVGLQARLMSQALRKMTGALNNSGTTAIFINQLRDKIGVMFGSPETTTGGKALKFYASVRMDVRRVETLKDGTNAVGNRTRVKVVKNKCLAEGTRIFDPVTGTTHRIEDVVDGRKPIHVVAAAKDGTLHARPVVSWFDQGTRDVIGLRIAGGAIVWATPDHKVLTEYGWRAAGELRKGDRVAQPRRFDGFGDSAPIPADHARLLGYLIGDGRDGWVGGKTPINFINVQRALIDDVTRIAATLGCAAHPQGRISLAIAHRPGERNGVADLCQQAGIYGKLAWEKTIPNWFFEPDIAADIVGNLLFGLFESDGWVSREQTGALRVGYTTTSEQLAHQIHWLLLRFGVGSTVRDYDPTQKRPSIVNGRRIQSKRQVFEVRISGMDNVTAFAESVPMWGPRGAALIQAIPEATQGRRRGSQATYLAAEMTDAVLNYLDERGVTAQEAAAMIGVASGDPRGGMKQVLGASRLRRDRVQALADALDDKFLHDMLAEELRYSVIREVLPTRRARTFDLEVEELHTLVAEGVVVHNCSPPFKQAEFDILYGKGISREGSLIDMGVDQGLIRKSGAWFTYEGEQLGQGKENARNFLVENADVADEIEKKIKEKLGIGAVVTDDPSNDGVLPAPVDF

Compound	IC50 [1]	IC50 [2]	EC50 (cells)	IC50 [3]	EC50 [4]	IC50 (Caspase-3)	AC50 [5]	IC50 [6]	EC50 (Protein RecA)
C(=N\Nc1ccccc1)/c1nc2ccccc2s1	1.6 µM (active)	> 100 µM (inactive)	> 67.5 µM (inactive)	> 100 µM (inactive)	> 67.5 µM (inactive)	26 µM (active)			
CCCc1n[nH]c2c1C(c1ccc(OC)c(CSC3=NCCS3)c1)C(C#N)=C(N)O2 (centres undefined)							2.99 µM (active)	23.9 µM (active)	4.56 µM (active)
